# Where “and” joins values, the source holds several entries; their conditions need not be identical. Equal values may be shown once.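 Values below derive from 48-hour exposures of cells grown in 96-well plates, with endpoints linearly interpolated between the two concentrations bracketing the appropriate inhibition level. Abbreviation: GI50, concentration required for 50% inhibition of growth. TGI denotes the concentration required for complete inhibition of growth.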
# Tests used:
# Assay in all cases: NCI-60 cell line screen, 48 h
# SK-MEL-28 melanoma = tested on: SK-MEL-28 melanoma
# CAKI-1 renal = tested on: CAKI-1 renal
# NCI-H226 lung = tested on: NCI-H226 lung
# HOP-92 NSCLC = tested on: HOP-92 NSCLC
# UACC-62 melanoma = tested on: UACC-62 melanoma
# SW-620 colon = tested on: SW-620 colon
# HOP-62 NSCLC = tested on: HOP-62 NSCLC
# NCI-H460 lung = tested on: NCI-H460 lung
# LOX IMVI melanoma = tested on: LOX IMVI melanoma
Structure (SMILES),GI50 (SK-MEL-28 melanoma),TGI (SK-MEL-28 melanoma) [µM],GI50 (CAKI-1 renal) [µM],TGI (CAKI-1 renal) [µM],GI50 (NCI-H226 lung),TGI (NCI-H226 lung) [µM],GI50 (HOP-92 NSCLC),TGI (HOP-92 NSCLC),GI50 (UACC-62 melanoma),TGI (UACC-62 melanoma) [µM],GI50 (SW-620 colon),TGI (SW-620 colon) [µM],GI50 (HOP-62 NSCLC),TGI (HOP-62 NSCLC) [µM],GI50 (NCI-H460 lung),TGI (NCI-H460 lung) [µM],GI50 (LOX IMVI melanoma),TGI (LOX IMVI melanoma)
Nc1nc(N)c2c(n1)NC(c1sc(Cl)nc1Cl)CC(c1ccccc1)=N2 (centres undefined),4.26 µM,17.8,3.28,19.6,13.7 µM,35.1,3.72 µM,18 µM,3.05 µM,13.9,3.42 µM,13.3,3.72 µM,18,4.05 µM,14.6,5.39 µM,18.1 µM
Nc1nc(=O)n(C2CC(O)C(CO)O2)cc1F (centres undefined),,> 100,< 0.0119,> 100,,> 100,1.65 µM,,< 0.0473 µM,> 100,,> 100,,> 100,0.00231 µM,> 100,0.01 µM,> 100 µM
CCOC(=O)C1(CC(=O)O)CCCC1=O (centres undefined),,> 100,,> 100,,> 100,,> 100 µM,,> 100,,> 100,,> 100,,> 100,,> 100 µM
CN(C)c1ccc(C(=S)c2ccc(N(C)C)cc2)cc1,7.59 µM,> 100,6.15,> 100,22.2 µM,> 100,9.01 µM,86.8 µM,4.47 µM,> 100,3.98 µM,> 100,5.09 µM,> 100,3.97 µM,> 100,5.86 µM,88.6 µM
CCCCCC/C=C/C#CCCCCCCCC(=O)O,,> 100,,> 100,,> 100,,> 100 µM,,,,> 100,,,,> 100,,> 100 µM
CC/C=C\C[C@H]1C/C=C2/C(=O)C=C[C@H]2C/C=C\CCCC(=O)O1,3.1 µM,11.4,2.29,8.23,3.4 µM,10.8,2.53 µM,10.1 µM,1.78 µM,7.94,2.58 µM,10.4,2.09 µM,7.72,2.92 µM,14.5,1.68 µM,6.7 µM
OCC#CCOCC#Cc1ccccc1C#CCOCC#CCO,,,82.8,> 100,41.4 µM,> 100,21.8 µM,> 100 µM,25.8 µM,75.1,58.9 µM,> 100,,,48.6 µM,> 100,,
C[C@@H](Nc1nc(N[C@H](C)C(F)(F)F)nc(-c2cccc(Cl)n2)n1)C(F)(F)F,72.5 µM,> 100,24.9,96.2,35.6 µM,> 100,10.1 µM,63.6 µM,,,> 100 µM,> 100,27.5 µM,> 100,36.1 µM,> 100,79.8 µM,> 100 µM
C/C(=N\Nc1ccccc1)c1sc(-c2nc(C)c(/C(C)=N/Nc3ccccc3)s2)nc1C,,> 85.8,,> 89.4,,> 95.7,,> 57.6 µM,,13.6,,> 35.2,,,,> 100,,> 100 µM
O=C(NC1CCN(Cc2ccccc2)CC1)c1cc(-c2cccnc2)nc2ccc(Cl)cc12,16.3 µM,> 100,3.24,19.1,9.72 µM,50.3,,,17.4 µM,> 100,11.5 µM,> 100,11.8 µM,31.5,4.24 µM,21.7,3.27 µM,17.2 µM
O=S(=O)(C1=CC(S(=O)(=O)c2ccccc2)COC1)c1ccccc1 (centres undefined),,> 100,,> 100,,,,,,> 100,,> 100,,> 100,,> 100,,> 100 µM
O=CC(OC(=O)c1ccccc1)C(OC(=O)c1ccccc1)C(COC(c1ccccc1)(c1ccccc1)c1ccccc1)OC(=O)c1ccccc1 (centres undefined),13.5 µM,28.3,25.1,72.2,18.9 µM,64.4,,,14.5 µM,44.1,5.13 µM,20.7,18.3 µM,32.6,17.1 µM,37.8,11 µM,27.3 µM
CCc1cccc(C(C)C)c1NC(=O)CC1Sc2ccccc2NC1=O (centres undefined),,> 100,,> 100,,> 100,,95.3 µM,,,,> 100,,> 100,,> 100,,> 100 µM
Nc1n[n+]([O-])c2cc([N+](=O)[O-])ccc2[n+]1[O-],,> 100,,20.6,,30.7,,,,9.84,,> 100,,22.3,,16.1,,> 100 µM
CN1CCN(CCCOc2cccc3nc(Nc4cc(Cl)cc(Cl)c4)ccc23)CC1,1.67 µM,3.13,2.97,11.7,1.95 µM,4.04,1.59 µM,4.82 µM,1.95 µM,3.68,1.97 µM,3.68,1.37 µM,2.81,1.84 µM,3.43,,
C=C1CCC2CC1C(C(=O)c1c[nH]c3ccccc13)=NC2(C)C (centres undefined),,> 100,,> 100,,> 100,,,,> 100,,> 100,,> 100,,> 100,,> 100 µM
CC(=O)N[C@H](C)[C@@H](O)[C@@H](C)[C@@H]1OC(=O)/C=C/C=C(C)\C=C\[C@]2(C)C[C@@H](NS(C)(=O)=O)C=C[C@@H]2/C=C(C)/C=C/[C@H]1C,0.008 µM and 0.0222 µM,> 43.5,,,0.0156 µM and 0.00593 µM,> 43.5,0.00126 µM and 0.00435 µM,0.0297 µM and 0.0256 µM,0.00725 µM and 0.0278 µM,> 43.5,0.00821 µM and 0.0135 µM,> 43.5,0.0103 µM and 0.0205 µM,> 43.5,0.00812 µM and 0.0174 µM,> 43.5,0.00271 µM and 0.00743 µM,0.00873 µM and 0.0148 µM
